{
  "source": "paper PMC6695811",
  "about": "“Protein Phosphatase Ppz1 Is Not Regulated by a Hal3-Like Protein in Plant Pathogen Ustilago maydis” (International Journal of Molecular Sciences, 2019)",
  "assay_in_all_cases": "phosphatase activity assay",
  "assay_type_in_all_cases": "biochemical",
  "conditions_in_all_cases": "10 mM pNPP",
  "key": {"[1]": {"target": "T1, UmPpz1-s (Mycosarcoma maydis, UniProt A0A0D1DW62)", "T1 construct": "gene UMAG_04827; short version lacking residues 1-8 (starts at Met9), pGEX-6p-1, E. coli BL21(DE3) RIL, GST tag cut by PreScission", "T1 sequence (A0A0D1DW62 9-497)": "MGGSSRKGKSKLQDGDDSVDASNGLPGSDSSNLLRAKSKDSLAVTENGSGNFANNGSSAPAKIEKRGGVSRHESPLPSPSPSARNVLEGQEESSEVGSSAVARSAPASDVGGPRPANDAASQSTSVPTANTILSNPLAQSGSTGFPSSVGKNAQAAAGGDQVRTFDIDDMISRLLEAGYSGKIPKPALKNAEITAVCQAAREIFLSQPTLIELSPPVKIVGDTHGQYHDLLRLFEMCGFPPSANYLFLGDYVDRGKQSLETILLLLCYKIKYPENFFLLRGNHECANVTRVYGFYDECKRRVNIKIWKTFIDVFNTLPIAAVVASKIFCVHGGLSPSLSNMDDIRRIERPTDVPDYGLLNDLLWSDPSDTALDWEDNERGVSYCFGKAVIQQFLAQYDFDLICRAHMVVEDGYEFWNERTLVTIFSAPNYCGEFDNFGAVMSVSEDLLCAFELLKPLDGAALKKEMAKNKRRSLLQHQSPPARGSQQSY"}, "[2]": {"target": "T2, UmPpz1 (Mycosarcoma maydis, UniProt A0A0D1DW62)", "T2 construct": "gene UMAG_04827; full-length ORF, 497 residues, from FB1 genomic DNA in pGEX-6p-1, E. coli BL21(DE3) RIL, GST tag cut by PreScission", "T2 sequence (A0A0D1DW62 1-497)": "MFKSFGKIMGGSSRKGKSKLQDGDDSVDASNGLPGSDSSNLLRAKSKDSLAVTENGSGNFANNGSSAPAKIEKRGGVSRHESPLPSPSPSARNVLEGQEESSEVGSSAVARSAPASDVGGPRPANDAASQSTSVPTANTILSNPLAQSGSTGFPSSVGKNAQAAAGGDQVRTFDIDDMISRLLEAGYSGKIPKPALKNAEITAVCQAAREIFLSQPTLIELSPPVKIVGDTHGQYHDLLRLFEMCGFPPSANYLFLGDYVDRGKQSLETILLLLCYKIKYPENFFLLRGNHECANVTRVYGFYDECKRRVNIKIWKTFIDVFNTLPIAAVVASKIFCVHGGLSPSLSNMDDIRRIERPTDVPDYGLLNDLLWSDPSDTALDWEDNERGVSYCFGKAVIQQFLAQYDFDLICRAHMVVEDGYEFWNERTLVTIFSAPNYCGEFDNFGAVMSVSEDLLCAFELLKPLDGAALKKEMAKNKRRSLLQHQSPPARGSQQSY"}, "[3]": {"target": "T3, ScPpz1 (Saccharomyces cerevisiae, UniProt P26570)", "T3 construct": "gene PPZ1; full length, 692 residues, GST fusion from E. coli BL21(DE3) RIL, GST tag cut by PreScission", "T3 sequence (P26570 1-692)": "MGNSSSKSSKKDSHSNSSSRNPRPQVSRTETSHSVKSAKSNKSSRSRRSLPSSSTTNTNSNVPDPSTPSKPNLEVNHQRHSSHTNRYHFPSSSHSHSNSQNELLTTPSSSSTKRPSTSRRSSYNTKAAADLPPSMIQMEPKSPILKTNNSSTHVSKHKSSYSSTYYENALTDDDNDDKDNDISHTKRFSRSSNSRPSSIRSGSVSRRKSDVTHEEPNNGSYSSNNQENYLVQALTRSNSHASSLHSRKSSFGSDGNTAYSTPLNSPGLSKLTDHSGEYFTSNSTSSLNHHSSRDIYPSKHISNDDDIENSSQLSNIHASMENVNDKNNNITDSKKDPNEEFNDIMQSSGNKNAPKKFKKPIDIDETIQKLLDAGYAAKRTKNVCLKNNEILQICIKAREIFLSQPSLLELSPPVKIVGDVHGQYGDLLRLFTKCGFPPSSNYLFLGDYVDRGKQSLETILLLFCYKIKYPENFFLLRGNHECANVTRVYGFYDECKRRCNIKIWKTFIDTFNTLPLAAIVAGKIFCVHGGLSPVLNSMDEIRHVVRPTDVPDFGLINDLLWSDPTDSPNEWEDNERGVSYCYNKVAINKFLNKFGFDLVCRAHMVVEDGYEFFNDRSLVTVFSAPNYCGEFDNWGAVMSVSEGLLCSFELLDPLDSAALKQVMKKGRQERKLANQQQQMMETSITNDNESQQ"}},
  "data": [
    {"smiles": "O=[N+]([O-])c1ccc(OP(=O)(O)O)cc1", "note": "[p-nitrophenylphosphate]", "values": [
      {"measurement": "phosphatase activity assay", "setting": "[1]", "result": "The recombinant enzyme (as well as UmPpz1-s) showed phosphatase activity against the synthetic substrate pNPP"},
      {"measurement": "phosphatase activity assay", "setting": "[2]", "result": "showed phosphatase activity against the synthetic substrate pNPP"},
      {"measurement": "phosphatase activity assay", "setting": "[3]", "result": "substrate pNPP which was similar to that observed for ScPpz1"}
    ]}
  ]
}
